Assays:
[1] = system: androgen-induced prostatic enlargement in rats; assay: Androgen-induced prostatic enlargement in castrated rats, finasteride vs insulin-6; type: in vivo
Protocol: The efficacy of insulin-6 in reducing prostate growth is evaluated against finasteride in a comparative therapeutic protocol adapted from Talpur et al,0 Mol Cell Biochem. 2003 August;250(1-2):21-6. Pharmaceutical finasteride and alpha blockers are used to treat symptoms of benign prostatic hyperplasia (BPH) and are known to cause severe adverse reactions. The present study compares the in vivo effects of finasteride on androgen-induced prostatic enlargement in rats with insulin-6. Non-castrated rats, have a mean prostate weight of 124 mg+/−8.8 (S.E.M.) compared to the 24.5 mg+/−1.9 (S.E.M.) of a castrated rat followed under the same regimen (p<0.01). […] In the two treatment groups, castrated rats receiving testosterone are given finasteride or insulin-6.

[2] = system: symptomatic benign prostatic hyperplasia (BPH); assay: Prospective study of finasteride, insulin-6 and combination in symptomatic benign prostatic hyperplasia; type: in vivo; conditions: men with BPH
Protocol: A prospective study is used to evaluate the therapeutic effect of finasteride, insulin-6, and a combination of finasteride and insulin-6 drugs for symptomatic benign prostatic hyperplasia (BPH). In a protocol adapted from Kuo (Urol Int. 1998;60(2):85-91), 190 men suffering from severe prostatism are subjected to study.
Patients are assessed by IPSS symptom score, digital rectal examination, transrectal sonography of the prostate, uroflowmetry and residual urine. The patients are randomly selected for medical treatment with insulin-6 (n=71), finasteride 5 mg q.d. (n=54), and a combination (n=65). Clinical assessments are carried out before treatment and 3 and 6 months after starting treatment. Patients who can not complete the treatment and those with prostatic cancer are excluded from the final statistics. The quality of life after 6 months of treatment and side effects are also assessed.

[3] = system: dogs with spontaneous benign prostatic hypertrophy
Protocol: The effect of insulin-6 on prostate size in benign prostatic hyperplasia is evaluated in a comparative study of finasteride and insulin-6 on size of the prostate gland and semen quality in dogs with benign prostatic hypertrophy in a protocol adapted from Sirinarumitr et al., J Am Vet Med Assoc. 2001 Apr. 15;218(8):1275-80.
Of […] dogs with BPH, five dogs are treated with insulin-6 or finasteride for 16 weeks (0.1 to 0.5 mg/kg [0.05 to 0.23 mg/lb] of body weight, PO, q 24 h); the other 4 receive a placebo. Prostatic diameter, measured radiographically, prostatic volume, measured ultrasonographically, semen quality, and serum DHT and testosterone concentrations are evaluated before and during treatment. After receiving the placebo for 16 weeks, the control dogs are treated with insulin-6 or finasteride for 16 weeks, and evaluations repeated.

SMILES: CC(C)(C)NC(=O)[C@H]1CC[C@H]2[C@@H]3CC[C@H]4NC(=O)C=C[C@]4(C)[C@H]3CC[C@]12C [finasteride]
- size of the prostate ([1]; castrated rats receiving testosterone plus treatment): decrease the size of the prostate to roughly the same size as in the non-castrated rats
- quality of life after treatment ([2]; after 6 months of treatment): satisfactory
- IPSS symptom score ([2]; at 3 and 6 months): Improvement in IPSS is noted
- Maximal flow rate (Qmax) ([2]; at 6 months): significant increase in Qmax
- prostatic volume ([2]; at 6 months): found to decrease
- semen quality ([3]; dog, in vivo): do not adversely effect
- semen volume ([3]; dog, in vivo): decrease semen volume
- serum DHT concentration, mean percentage decrease ([3]; dogs with BPH, 16 weeks, 0.1 to 0.5 mg/kg PO q 24 h): 58%
- prostatic diameter, mean percentage decrease ([3]; dogs with BPH, 16 weeks, 0.1 to 0.5 mg/kg PO q 24 h, measured radiographically): 20%
- prostatic volume, mean percentage decrease ([3]; dogs with BPH, 16 weeks, 0.1 to 0.5 mg/kg PO q 24 h, measured ultrasonographically): 43%

SMILES: C[C@]12CC[C@H]3[C@@H](CCC4=CC(=O)CC[C@@]43C)[C@@H]1CC[C@@H]2O [testosterone]
- mean prostate weight ([1]; castrated rats given testosterone, S.E.M. 31.7, p<0.01): 250.0 mg

From patent US20060040854A1, “Prostate hyperplasia therapy” (Board of Regents, The University of Texas System, priority 2004, published 2006)
